One assay has as its system MDA-MB231 cell lines. Description: MTT cell viability assay (IC50). The format is cell-based. The note with it: Homo sapiens, MDA-MB-231, single dose of treatment, 10^−9 to 10^−4 M, 570 nm absorbance (FIG. 1), read-out: half-maximal inhibitory concentration (IC50). On the procedure:
(§1) HCT 116 colon cancer and MDA-MB231 breast cancer cell lines are used in cell culture experiments.
Cells were treated with high-glucose DMEM medium (Biosera) supplemented with 10% FBS (Gibco) and 1× penicillin/streptomycin (Multicell). The assay was designed to contain 10,000 cells for each well of 24-well cell culture plates before being treated with inhibitors.
Compound of formula I was dissolved with DMSO as 20 mM stock. 24 hours later, the solution was diluted in DMEM with 10% FBS and final concentration of vehicle DMSO was 0.5% at maximum. Therefore, the vehicle group included 0.5% DMSO concentration in experiments. Intensive cultivation of cells causes a decrease in proliferation capacity.
The MTT cell viability assay was used to detect values of half-maximal inhibitory concentration (IC50). Different concentrations of compound of formula I ranging between 10^−9 to 10^−4 M were tested on MDA-MB231 cell lines with single dose of treatment. 570 nm absorbance values were recorded and IC50 values were calculated by dose response—inhibition curves and nonlinear regression analysis on Graphpad Prism 8 software.
For orientation: Tetrazolium dyes change colour on reduction, which living cells bring about.

The subject of assay [1] is HCT 116 colon cancer and MDA-MB231 breast cancer cell lines. Briefly: MTT cell proliferation inhibition analysis. The format is cell-based. To be noted: 100 μM; MTT at 12 h, 24 h, 48 h and 72 h; ANOVA, p<0.001 (FIG. 2). The protocol:
as §1
For proliferation inhibition analysis, cells were seeded in 24 well plates at 1×10^4 cells/well cells overnight without drug treatment. During the cell proliferation experiments, we performed five days of treatment in each cell line and repeated the experiments three times to check each experiment. No significant difference in cell viability was observed after the third day. Therefore, cells with different drug concentrations were treated for two days. After 48 hours, MTT was applied to the cells and incubated at 37° C. for 4 hours, formazan was solubilized with DMSO (Sigma-Aldrich, St. Louis, USA) and absorbance was measured at 570 nm.
Molecule concentration was 100 μM, the lower concentrations were not shown. Vehicle represents the groups treated with only %0.5 DMSO and Untreated represents no molecule treated group. Molecule responses were evaluated by cell viability which is obtained by spectrophotometric analysis of cells upon MTT treatment at 12 h, 24 h, 48 h and 72 h. […] Statistical significance in graphs was determined by comparing each treatment group with DMSO control using ANOVA testing and significance is considered as p<0.001 (FIG. 2).

The target of a further assay is MDM2 protein (Homo sapiens, UniProt Q00987). To be noted: compared with natural p53 peptide; cited from earlier work.
Chain of MDM2 protein (Q00987 whole entry, species assumed): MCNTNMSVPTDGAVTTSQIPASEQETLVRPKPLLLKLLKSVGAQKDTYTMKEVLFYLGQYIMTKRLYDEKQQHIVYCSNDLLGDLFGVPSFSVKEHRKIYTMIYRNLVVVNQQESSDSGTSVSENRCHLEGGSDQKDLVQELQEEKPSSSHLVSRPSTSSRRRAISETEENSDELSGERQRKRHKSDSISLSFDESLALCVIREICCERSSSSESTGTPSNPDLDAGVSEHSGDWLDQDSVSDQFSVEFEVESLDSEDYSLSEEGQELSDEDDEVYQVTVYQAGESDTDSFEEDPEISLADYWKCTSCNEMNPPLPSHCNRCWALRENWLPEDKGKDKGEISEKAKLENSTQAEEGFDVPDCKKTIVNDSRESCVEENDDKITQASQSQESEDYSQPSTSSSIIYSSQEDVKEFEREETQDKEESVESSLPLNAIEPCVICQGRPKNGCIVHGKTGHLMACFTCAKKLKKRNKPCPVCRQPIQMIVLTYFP

We go through two molecules from US20230063449A1, “DRG-MDM2-5 FOR USE AS A NOVEL MOUSE DOUBLE MINUTE 2 (MDM2) INHIBITOR” (BAHCESEHIR UNIVERSITESI, priority 2020, published 2023).

On to `O=C(CSCc1ccccc1)NC(CC1CNc2ccccc21)C(=O)O` (stereo not drawn) [compound of formula I], for which the IC50 with MDA-MB231 cell lines came out at 98 µM. Besides, the “cell viability (MTT) compared to vehicle and untreated groups” value in assay [1] is “statistically significant difference compared to vehicle and untreated groups”.

Consider MI-319, for which the “binding affinity to MDM2 protein relative to a natural p53 peptide” value at MDM2 protein is given as 500 fold.
